Data: patent US10851096B2, “Aryl and heteroaryl amides for use as anti-proliferative, anti-thrombotic, and anti-viral agents” (Rutgers, The State University of New Jersey, priority 2016, dated 2020)

Key:
hAxl/IFN-γR1 = target: T1, hAxl/IFN-γR1 (Homo sapiens, UniProt P30530); assay: hAxl/IFN-γR1 CHO reporter cell line assay, Gas6-induced activation (pSTAT1 immunoblot); type: cell-based; details: for apparent EC50, anti-Axl activity: Axl reporter system; for IC50: dose-response, FIG. 2A/2B, read-out: IC50, Axl-inhibitory activity on hAxl/IFN-γR1 reporter cell lines
T1 construct: containing human Axl extracellular domains and transmembrane and intracellular domains of human IFN-γR1; human IFN-γR1 transmembrane and intracellular domains (fusion partner); expressed in transfected cells
T1 sequence (P30530 26-451 limits assumed): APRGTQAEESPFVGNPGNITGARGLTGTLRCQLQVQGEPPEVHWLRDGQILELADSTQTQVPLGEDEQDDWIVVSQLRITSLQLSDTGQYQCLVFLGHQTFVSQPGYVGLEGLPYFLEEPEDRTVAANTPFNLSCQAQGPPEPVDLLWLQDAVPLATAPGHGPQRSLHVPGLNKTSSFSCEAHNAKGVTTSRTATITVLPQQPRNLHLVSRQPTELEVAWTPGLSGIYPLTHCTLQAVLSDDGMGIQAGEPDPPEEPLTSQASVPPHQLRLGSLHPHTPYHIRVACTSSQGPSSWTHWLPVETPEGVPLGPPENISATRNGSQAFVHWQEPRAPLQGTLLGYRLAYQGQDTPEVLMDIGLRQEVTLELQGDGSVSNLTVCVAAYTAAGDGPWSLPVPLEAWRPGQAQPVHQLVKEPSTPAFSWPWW
Description: Stable HEK 293 cells secreting human Gas6 (clone 7.4.1) were allowed to achieve 70% confluence in a 10-cm plate. The complete medium with 10% FBS was then changed into serum free media in the presence of 10 µg/mL vitamin K1 (Phytonadione injectable emulsion from Hospira). After 72 hours, the Gas6 conditioned medium was collected, and validated for the presence of Gas6 and γ-carboxylation (by immunoblot) and activity of Gas6 (via activation of pSTAT1 in hAxl/γR1 cells).
Stable hAxl/IFN-γR1 CHO reporter cell lines (containing human Axl extracellular domains and transmembrane and intracellular domains of human IFN-γR1) were serum starved for 5 hrs±small molecule inhibitors and then stimulated with human Gas6 conditioned media±small molecule inhibitors for 30 minutes. For H1299 human non-small cell lung carcinoma and MDA-MB-231 human breast adenocarcinoma cell lines, the cells were serum starved overnight±small molecule inhibitors and stimulated with human Gas6 conditioned media±small molecule inhibitors for 30 minutes. Whole cell lysates of hAxl/IFN-γR1, H1299 and MDA-MB-231 cells were prepared using HNTG buffer (20 mM HEPES, pH 7.5, 150 mM NaCl, 10% glycerol, 1% Triton X-100, 1 mM PMSF, 1 mM Na3VO4, 10 mM Na2MoO4, 1 mM EDTA, 10 mM NaF and 20 μg/mL aprotinin). The resulting lysates were resolved on SDS-PAGE gel and immunoblotted with respective antibodies.
Immunoblot data were obtained within a linear range of exposure, and intensities were quantified by ImageJ. The levels of hAxl/IFN-γR1 cells lines activation were measured by pSTAT1 whereas the levels of H1299 and MDA-MB-231 cell lines activation were measured by pAxl signal intensities. Blots were normalized to intensities of respective β-actin or GAPDH protein loading controls. The levels of pSTAT1 or pAxl activation induced by Gas6±small molecule inhibitors were plotted as a fold of enhancement or reduction over intensities induced by Gas6 alone.

Axl/Gas6 interaction = target: T2, Axl/Gas6 interaction (Homo sapiens, UniProt P30530); assay: Pull-down competitive inhibition assay of Gas6 binding to His-tagged soluble Axl; details: His-tagged soluble Axl Ig1/Ig2 with recombinant Gas6
T2 construct: His-tagged soluble Axl Ig1/Ig2 recombinant proteins; Amgen (Gas6 only)
Description: 400 nM His tagged-sAxl were co-incubated with increasing amounts of compound 1A (0, 5, 10 or 20 μM) in a 50 μl reaction mixture of Tris-Nacl Buffer (20 mM Tris.HCl, 150 mM NaCl, pH 8.0), and incubated at 37° C. for 60 minutes, with intermittent mixing. Thereafter, equal amount of hGas6 (100 nM) was added to each tube and incubated at 37° C. for another 60 minutes, with intermittent mixing. To each of the tubes, 1 μg of 6×-His antibody was added and the mixture was incubated overnight at 4° C. on a rotary mixer. After overnight incubation, 30 μl of Protein A/G PLUS agarose beads (Santa Cruz) were added into each of the tubes and incubated for an hour at 4° C. The mixtures were centrifuged and the pellets were then washed four times in ice-cold Nonidet P-40 buffer (20 mM Tris.HCl, 150 mM NaCl, pH 8.0 and 1% Nonidet P-40). Pellets were re-suspended in 30 μl of 2× sample loading dye and boiled for 5 min at 95° C. The samples were fractionated by SDS-PAGE and bound Gas6 was analyzed by immunoblotting.

H1299 cells = assay: Colony forming assay, H1299; type: cell-based, human; details: H1299 cultured in the presence of Gas6
Description: H1299 cells were plated in 6 well plates at a very low density (˜250 cells/well). Next day, the cells were treated with the SMIs at different concentrations. The cells were incubated with the drugs for 14 days. After 14 days, colonies were stained with 0.25% crystal violet in 95% ethanol. Colonies consisting of more than 50 cells were counted.

[1] = test system: normal (non-cancerous) cells; assay: Cytotoxicity assays using normal (non-cancerous) cells; type: cell-based
[2] = Toxicity and body weight in xenograft mice; type: in vivo; details: for body weights: 100 mg/kg, versus vehicle; for toxicity in cell culture or in vivo: up to highest dose tested 300 mg/kg IP
Description: 500,000 H1299 cells in 100 μl of PBS were injected subcutaneously into the right flank of 4-6 week NOD/SCIDg mice. Once tumors were palpable, the mice were randomized into 3 groups, each group had 6 mice: control mice were treated with vehicle (DMSO) intraperitoneally (IP) and the treatment groups with compound 1I (day 1, day 2, day 3 and day 4) or with compound 1Q (day 1, day 2, day 3, day 4, day 7 and day 8) at a dose of 100 mg/kg IP. Similar studies were conducted on compound 1Q dosed at 300 mg/kg in mice. Tumor size and body weights were measured three times a week and the tumor volume calculated.

[3] = Venous thromboembolism (VTE) mouse model; type: in vivo; details: 200 mg/kg qd IP for three days
[4] = Cancer associated VTE mouse model; type: in vivo; details: 200 mg/kg qd IP for three days

Row | SMILES | remaining activity at 10 µM (hAxl/IFN-γR1) | apparent EC50, anti-Axl activity (hAxl/IFN-γR1) | IC50 (hAxl/IFN-γR1) | inhibition of Axl/Gas6 interaction in vitro (Axl/Gas6 interaction) | clonogenic growth (H1299 cells) | cellular toxicity [1] | body weights [2] | toxicity in cell culture or in vivo [2] | reduction in thrombus size [3] | reduction in thrombus size [4]
1 | Cc1noc(C)c1CSc1ccccc1C(=O)N1CCN(c2cccc(C(F)(F)F)c2)CC1 [1I] | 20% | low micro-molar range | 1150 nM | able to inhibit in vitro the Axl/Gas6 interaction in a dose-dependent manner | suppressed clonogenic growth | no discernible cellular toxicity | not significantly different | Neither compound 1I nor compound 1Q showed notable toxicity |  | 
2 | Cc1cc(CSc2ccccc2C(=O)NCCNc2ccc(C(F)(F)F)cc2[N+](=O)[O-])on1 [1Q] | 10% | low micro-molar range | 1250 nM | able to inhibit in vitro the Axl/Gas6 interaction in a dose-dependent manner | suppressed clonogenic growth | no discernible cellular toxicity | not significantly different | Neither compound 1I nor compound 1Q showed notable toxicity | approximately 37.3% | 45%
